Experimental data from publication PMC5779714, “Metallochaperone UreG serves as a new target for design of urease inhibitor: A novel strategy for development of antimicrobials” (PLoS Biology, 2018).
Several values for one entry are separate records, joined by “and”; a condition that tells them apart may be missing. Equal values may be shown once. Read-outs that look alike come from different tables or passages of the source.

Tests used:
urease [1] = biological target: T1, urease (Proteus mirabilis, UniProt P17086+P17087+P17088); format: biochemical
T1 construct: endogenous in cells
T1 sequence (P17087 whole entry): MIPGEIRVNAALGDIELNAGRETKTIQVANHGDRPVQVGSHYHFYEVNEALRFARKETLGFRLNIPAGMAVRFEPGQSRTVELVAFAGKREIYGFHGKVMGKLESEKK
T1 sequence (P17088 whole entry): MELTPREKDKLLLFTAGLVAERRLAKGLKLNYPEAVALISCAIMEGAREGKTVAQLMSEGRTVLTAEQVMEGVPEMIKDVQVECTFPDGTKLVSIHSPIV
T1 sequence (P17086 whole entry): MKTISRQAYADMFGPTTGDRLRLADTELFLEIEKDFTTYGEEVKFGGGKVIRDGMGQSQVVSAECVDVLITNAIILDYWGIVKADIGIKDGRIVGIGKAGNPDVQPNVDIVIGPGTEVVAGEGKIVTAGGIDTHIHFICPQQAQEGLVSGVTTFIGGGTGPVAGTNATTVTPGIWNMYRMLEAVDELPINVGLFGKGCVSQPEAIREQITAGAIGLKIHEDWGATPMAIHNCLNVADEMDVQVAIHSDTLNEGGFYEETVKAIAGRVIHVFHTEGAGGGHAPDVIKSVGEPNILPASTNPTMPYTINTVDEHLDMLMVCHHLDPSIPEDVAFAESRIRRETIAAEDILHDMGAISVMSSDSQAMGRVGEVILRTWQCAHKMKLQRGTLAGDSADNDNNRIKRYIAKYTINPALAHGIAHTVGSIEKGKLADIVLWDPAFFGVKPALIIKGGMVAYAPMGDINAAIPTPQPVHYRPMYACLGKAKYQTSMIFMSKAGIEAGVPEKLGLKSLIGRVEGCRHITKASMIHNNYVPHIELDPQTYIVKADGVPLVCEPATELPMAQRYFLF

[2] = test system: AGS cells with H. pylori infection; assay: AGS cells with H. pylori infection, inhibitors administrated to the AGS cells (S20 Fig); format: cell-based, human; conditions: 10 μM administrated to AGS cells with H. pylori infection
Description: As expected, low viability of AGS with the supplement of cmpd4 and cmpd8 was observed due to the toxicity of small compounds to mammalian cells. […] (PNG) Click here for additional data file.

urease [3] = biological target: T2, urease (Pseudomonas aeruginosa, UniProt Q9HUU5+Q9HUU6+Q9HUU8); assay: Urease activity of extracted P. aeruginosa urease (in vitro); format: biochemical
T2 construct: endogenous in cells
T2 sequence (Q9HUU6 whole entry): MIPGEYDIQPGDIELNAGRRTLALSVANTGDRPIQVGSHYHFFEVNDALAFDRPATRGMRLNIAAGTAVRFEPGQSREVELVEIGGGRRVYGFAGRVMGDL
T2 sequence (Q9HUU5 whole entry): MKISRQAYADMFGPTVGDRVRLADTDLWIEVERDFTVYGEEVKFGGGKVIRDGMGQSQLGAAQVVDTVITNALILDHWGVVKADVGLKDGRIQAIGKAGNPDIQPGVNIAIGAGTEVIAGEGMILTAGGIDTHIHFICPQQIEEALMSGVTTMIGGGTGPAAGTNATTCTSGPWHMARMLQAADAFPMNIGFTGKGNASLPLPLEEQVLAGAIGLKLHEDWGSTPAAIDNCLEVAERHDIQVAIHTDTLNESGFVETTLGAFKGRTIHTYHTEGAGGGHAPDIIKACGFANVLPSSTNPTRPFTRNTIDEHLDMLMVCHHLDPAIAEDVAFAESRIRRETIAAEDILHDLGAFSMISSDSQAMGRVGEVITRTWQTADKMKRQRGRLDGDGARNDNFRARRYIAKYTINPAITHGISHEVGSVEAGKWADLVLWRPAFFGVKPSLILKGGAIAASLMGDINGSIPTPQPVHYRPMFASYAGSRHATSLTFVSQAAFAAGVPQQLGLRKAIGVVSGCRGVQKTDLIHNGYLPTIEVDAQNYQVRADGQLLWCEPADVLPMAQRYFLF
T2 sequence (Q9HUU8 whole entry): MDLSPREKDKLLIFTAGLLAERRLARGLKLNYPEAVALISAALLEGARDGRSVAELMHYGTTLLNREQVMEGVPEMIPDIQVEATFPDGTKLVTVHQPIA

urease [4] = test system: urease
[5] = test system: AGS cells exposed to H. pylori; assay: Cell infection model: AGS cells exposed to H. pylori pre-cultured with inhibitors; format: cell-based, human; conditions: H. pylori pre-cultured with 10 μM inhibitor 24 h; MOI 20; 24 h infection; Hp alone 28.8%
H. pylori urease [6] = biological target: H. pylori urease (Helicobacter pylori, UniProt P14916+P69996); format: biochemical; parameters: endogenous in cells; host or cells: H. pylori strain 26695 or a clinical isolate
H. pylori urease (Helicobacter pylori, UniProt P14916+P69996), sequence (P69996 whole entry): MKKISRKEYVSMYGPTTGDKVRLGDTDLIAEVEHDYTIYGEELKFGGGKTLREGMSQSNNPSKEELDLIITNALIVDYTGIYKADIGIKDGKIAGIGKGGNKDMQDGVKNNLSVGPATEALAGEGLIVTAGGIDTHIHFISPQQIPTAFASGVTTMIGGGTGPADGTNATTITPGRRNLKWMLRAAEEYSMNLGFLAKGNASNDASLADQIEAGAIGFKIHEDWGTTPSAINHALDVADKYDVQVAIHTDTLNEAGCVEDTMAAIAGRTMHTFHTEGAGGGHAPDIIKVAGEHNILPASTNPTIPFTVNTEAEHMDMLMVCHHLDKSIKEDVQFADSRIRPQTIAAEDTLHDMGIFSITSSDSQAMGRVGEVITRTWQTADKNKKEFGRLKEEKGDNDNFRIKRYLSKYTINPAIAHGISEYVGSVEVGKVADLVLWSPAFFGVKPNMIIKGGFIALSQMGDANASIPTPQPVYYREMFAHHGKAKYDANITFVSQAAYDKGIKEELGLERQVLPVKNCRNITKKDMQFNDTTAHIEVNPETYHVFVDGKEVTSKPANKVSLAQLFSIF
H. pylori urease (Helicobacter pylori, UniProt P14916+P69996), sequence (P14916 whole entry): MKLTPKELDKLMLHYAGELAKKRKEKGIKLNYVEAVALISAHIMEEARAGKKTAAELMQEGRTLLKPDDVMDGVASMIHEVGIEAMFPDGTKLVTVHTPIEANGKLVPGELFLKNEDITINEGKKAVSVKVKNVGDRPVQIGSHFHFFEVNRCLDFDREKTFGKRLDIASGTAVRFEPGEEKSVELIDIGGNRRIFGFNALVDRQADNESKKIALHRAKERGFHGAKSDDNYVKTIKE

urease [7] = test system: urease; remark: listed apart in the source
urease [8] = test system: urease; remark: listed apart in the source
urease [9] = test system: urease; remark: listed apart in the source
H. pylori urease [10] = conditions: for Normalized urease activity(%): 40 min
Description: The starting sample with 20% urease activity was used. […] Because zero is not defined on a log scale, the blank values have been entered as 0.1.

CC(=O)NO [AHA, acetohydroxamic acid]
Normalized urease activity(%) (urease [1]; log(AHA[μM]) 1.29073): 83.9311%
Normalized urease activity(%) (urease [1]; log(AHA[μM]) 1.59176): 78.3381%
Normalized urease activity(%) (urease [1]; log(AHA[μM]) 1.89279): 61.9141%
Normalized urease activity(%) (urease [1]; log(AHA[μM]) 2.19382): 45.934%
Normalized urease activity(%) (urease [1]; log(AHA[μM]) 2.49485): 31.2855%
Normalized urease activity(%) (urease [1]; log(AHA[μM]) 2.79588): 25.6037%
Normalized urease activity(%) (urease [1]; log(AHA[μM]) 3.09691): 17.6136%
Normalized urease activity(%) (urease [1]; log(AHA[μM]) 3.39794): 16.1932%
Normalized urease activity(%) (urease [1]; log(AHA[μM]) 3.69897): 12.3757%
Normalized urease activity(%) (urease [1]; log(AHA[μM]) 4): 7.315%
Ammonia in medium [2]: 2.273 mM
Normalized cell survival (%) [2]: 14.4144%
Normalized urease activity(%) (urease [3]; log(AHA[μM]) 1.79588): 78.186%
Normalized urease activity(%) (urease [3]; log(AHA[μM]) 2.09691): 95.4076%
Normalized urease activity(%) (urease [3]; log(AHA[μM]) 2.39794): 91.1022%
Normalized urease activity(%) (urease [3]; log(AHA[μM]) 2.69897): 92.2503%
Normalized urease activity(%) (urease [3]; log(AHA[μM]) 3): 91.3892%
Normalized urease activity(%) (urease [3]; log(AHA[μM]) 3.30103): 81.0563%
Normalized urease activity(%) (urease [3]; log(AHA[μM]) 3.60206): 50.3444%
Normalized urease activity(%) (urease [3]; log(AHA[μM]) 3.90309): 18.7715%
Normalized urease activity(%) (urease [3]; log(AHA[μM]) 4.20412): 5.568%
Normalized urease activity(%) (urease [3]; log(AHA[μM]) 4.50515): 3.846%
Normalized urease activity(%) (urease [4]; log(AHA[μM]) 1.39794): 85.3556%
Normalized urease activity(%) (urease [4]; log(AHA[μM]) 2.09691): 97.9079%
Normalized urease activity(%) (urease [4]; log(AHA[μM]) 2.39794): 94.4212%
Normalized urease activity(%) (urease [4]; log(AHA[μM]) 2.69897): 97.2106%
Normalized urease activity(%) (urease [4]; log(AHA[μM]) 3): 105.579%
Normalized urease activity(%) (urease [4]; log(AHA[μM]) 3.30103): 100%
Normalized urease activity(%) (urease [4]; log(AHA[μM]) 3.60206): 74.198%
Normalized urease activity(%) (urease [4]; log(AHA[μM]) 3.90309): 38.6332%
Normalized urease activity(%) (urease [4]; log(AHA[μM]) 4.20412): 16.318%
Normalized urease activity(%) (urease [4]; log(AHA[μM]) 4.50515): 9.344%
Normalized cell survival (%) [5]: 40.5% ± 8.2% and 40.5405%
IC50 (H. pylori urease [6]; AHA incubated with extracted urease, ± SD): 1320 ± 291 µM
Normalized urease activity(%) (AHA) (H. pylori urease [6]; AHA log[μM] 1.89279): 109.4% and 109.395%
Normalized urease activity(%) (AHA) (H. pylori urease [6]; AHA log[μM] 2.19382): 96.0% and 96.0334%
Normalized urease activity(%) (AHA) (H. pylori urease [6]; AHA log[μM] 2.49485): 91.9% and 91.858%
Normalized urease activity(%) (AHA) (H. pylori urease [6]; AHA log[μM] 2.79588): 93.3% and 93.3194%
Normalized urease activity(%) (AHA) (H. pylori urease [6]; AHA log[μM] 3.09691): 51.1% and 51.1482%
Normalized urease activity(%) (AHA) (H. pylori urease [6]; AHA log[μM] 3.39794): 20.5% and 20.4593%
Normalized urease activity(%) (AHA) (H. pylori urease [6]; AHA log[μM] 3.69897): 2.7% and 2.714%
Normalized urease activity(%) (AHA) (H. pylori urease [6]; AHA log[μM] 4): 1.3% and 1.253%
Normalized urease activity(%) (AHA) (H. pylori urease [6]; AHA log[μM] 4.30103): 1.3% and 1.253%
Normalized urease activity(%) (urease [7]; log(AHA[μM]) 1.79588): 82.0618%
Normalized urease activity(%) (urease [7]; log(AHA[μM]) 2.09691): 76.8393%
Normalized urease activity(%) (urease [7]; log(AHA[μM]) 2.39794): 67.9837%
Normalized urease activity(%) (urease [7]; log(AHA[μM]) 2.69897): 58.901%
Normalized urease activity(%) (urease [7]; log(AHA[μM]) 3): 52.7702%
Normalized urease activity(%) (urease [7]; log(AHA[μM]) 3.30103): 45.277%
Normalized urease activity(%) (urease [7]; log(AHA[μM]) 3.60206): 27.5659%
Normalized urease activity(%) (urease [7]; log(AHA[μM]) 3.90309): 11.6712%
Normalized urease activity(%) (urease [7]; log(AHA[μM]) 4.20412): 3.951%
Normalized urease activity(%) (urease [7]; log(AHA[μM]) 4.50515): 2.589%
Normalized urease activity(%) (urease [8]; log(AHA[μM]) 1.79588): 92.5521%
Normalized urease activity(%) (urease [8]; log(AHA[μM]) 2.09691): 93.0486%
Normalized urease activity(%) (urease [8]; log(AHA[μM]) 2.39794): 89.0764%
Normalized urease activity(%) (urease [8]; log(AHA[μM]) 2.69897): 86.0973%
Normalized urease activity(%) (urease [8]; log(AHA[μM]) 3): 82.6216%
Normalized urease activity(%) (urease [8]; log(AHA[μM]) 3.30103): 72.6911%
Normalized urease activity(%) (urease [8]; log(AHA[μM]) 3.60206): 51.3406%
Normalized urease activity(%) (urease [8]; log(AHA[μM]) 3.90309): 15.0943%
Normalized urease activity(%) (urease [8]; log(AHA[μM]) 4.20412): 3.674%
Normalized urease activity(%) (urease [8]; log(AHA[μM]) 4.50515): 1.688%
Normalized urease activity(%) (urease [9]; log(AHA[μM]) 1.79588): 92.1939%
Normalized urease activity(%) (urease [9]; log(AHA[μM]) 2.09691): 91.7831%
Normalized urease activity(%) (urease [9]; log(AHA[μM]) 2.39794): 89.7288%
Normalized urease activity(%) (urease [9]; log(AHA[μM]) 2.69897): 88.9071%
Normalized urease activity(%) (urease [9]; log(AHA[μM]) 3): 90.1397%
Normalized urease activity(%) (urease [9]; log(AHA[μM]) 3.30103): 80.6902%
Normalized urease activity(%) (urease [9]; log(AHA[μM]) 3.60206): 55.6286%
Normalized urease activity(%) (urease [9]; log(AHA[μM]) 3.90309): 27.691%
Normalized urease activity(%) (urease [9]; log(AHA[μM]) 4.20412): 14.1331%
Normalized urease activity(%) (urease [9]; log(AHA[μM]) 4.50515): 10.8463%

[Ni+2] [Ni]
Normalized urease activity(%) (H. pylori urease [10]; supplement 0.05 (head prints CBS(μM )), starting sample 20% activity): 19.0%
Normalized urease activity(%) (H. pylori urease [10]; supplement 0.1 (head prints CBS(μM ))): 18.6%
Normalized urease activity(%) (H. pylori urease [10]; supplement 0.2 (head prints CBS(μM ))): 18.3%
Normalized urease activity(%) (H. pylori urease [10]; supplement 0.4 (head prints CBS(μM ))): 17.5%
restoration of urease activity (H. pylori urease [10]; supplemented to CBS-treated bacterial cell lysate): failed to restore the urease activity completely
